Assay in all cases: relative viability (nuclei count vs DMSO), 5 days (fraction); higher = more cells survive
Compound in assay [1]: COc1cc2ncn(-c3cc(OCc4ccccc4C(F)(F)F)c(C(N)=O)s3)c2cc1OC + CCNC(=O)c1noc(-c2cc(C(C)C)c(O)cc2O)c1-c1ccc(CN2CCOCC2)cc1 [Luminespib] (partner 0.01 µM)
Summed up: (§1)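 Nuclei were stained with Hoechst during a one-step fixation (final 0.05% Triton X-100, 1% formaldehyde, 1 ug/ml Hoechst) carried out 5 days after dosing, then counted on 4× images. The cells, lung cancer lines in 1536-well plates, had been dosed by pin tool the day after seeding with one drug alone or a fixed anchor-drug dose plus five library-drug doses (not always all listed) in √10 steps. Relative viability is the nuclei count in treated wells divided by that in vehicle wells, and each value is the median of duplicate plates.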

Compound in assay [2]: COc1cc2ncn(-c3cc(OCc4ccccc4C(F)(F)F)c(C(N)=O)s3)c2cc1OC + COc1cc2c(Oc3ccc(NC(=O)C4(C(=O)Nc5ccc(F)cc5)CC4)cc3F)ccnc2cc1OCCCN1CCOCC1 [Foretinib] (partner 0.25 µM)
In a few lines:
as §1

Compound in assay [3]: COc1cc2ncn(-c3cc(OCc4ccccc4C(F)(F)F)c(C(N)=O)s3)c2cc1OC + Cc1nc(Nc2ncc(C(=O)Nc3c(C)cccc3Cl)s2)cc(N2CCN(CCO)CC2)n1 [Dasatinib] (partner 0.075 µM)
In a few lines:
as §1

Compound in assay [4]: COc1cc2ncn(-c3cc(OCc4ccccc4C(F)(F)F)c(C(N)=O)s3)c2cc1OC + Nc1ncn([C@H]2C[C@H](O)[C@@H](CO)O2)c(=O)n1 [Decitabine] (partner 2 µM)
Summed up: as §1

This note sets out measurements from the supplement of paper PMC10307832.

PC-3 [JPC-3]: the relative viability in assay [1] (first compound 0.05 µM) came out at 0.66; in assay [1] (first compound 0.1581 µM) it was 0.712; in assay [1] (first compound 0.5 µM) it was 0.486; in assay [1] (first compound 1.581 µM), 0.221; in assay [1] (first compound 5 µM) it was 0.19; in assay [2] (first compound 0.05 µM), 0.96. Further, the relative viability in assay [2] (first compound 0.1581 µM) is 0.992; in assay [2] (first compound 0.5 µM) it was 0.402; in assay [2] (first compound 1.581 µM), 0.238; in assay [2] (first compound 5 µM) it was 0.233; in assay [3] (first compound 0.05 µM), 0.943; in assay [3] (first compound 0.1581 µM), 0.98. The relative viability was 0.767 in assay [3] (first compound 0.5 µM); 0.174 in assay [3] (first compound 1.581 µM); 0.168 in assay [3] (first compound 5 µM); 0.779 in assay [4] (first compound 0.05 µM); 0.842 in assay [4] (first compound 0.1581 µM); 0.653 in assay [4] (first compound 0.5 µM). The relative viability in assay [4] (first compound 1.581 µM) was found to be 0.396; in assay [4] (first compound 5 µM) it was 0.43.
On to PC-14, for which the relative viability came out at 0.15 in assay [1] (first compound 0.05 µM); 0.303 in assay [1] (first compound 0.1581 µM); 0.189 in assay [1] (first compound 0.5 µM); 0.159 in assay [1] (first compound 1.581 µM); 0.133 in assay [1] (first compound 5 µM); 0.934 in assay [2] (first compound 0.05 µM). For the same cell line, the relative viability worked out at 0.929 in assay [2] (first compound 0.1581 µM); 0.784 in assay [2] (first compound 0.5 µM); 0.629 in assay [2] (first compound 5 µM); 0.201 in assay [3] (first compound 0.05 µM); 0.235 in assay [3] (first compound 0.1581 µM); 0.106 in assay [3] (first compound 0.5 µM). Further, the relative viability in assay [3] (first compound 1.581 µM) was determined as 0.0176; in assay [3] (first compound 5 µM) it was 0.0233; in assay [4] (first compound 0.05 µM) it was 0.272; in assay [4] (first compound 0.1581 µM), 0.195; in assay [4] (first compound 0.5 µM), 0.141; in assay [4] (first compound 1.581 µM), 0.0475. Also, the relative viability in assay [4] (first compound 5 µM) came out at 0.0694.
With RERF-LC-KJ, the relative viability in assay [1] (first compound 0.05 µM) stood at 1.31; in assay [1] (first compound 0.1581 µM), 1.24; in assay [1] (first compound 0.5 µM), 0.373; in assay [1] (first compound 1.581 µM), 0.306; in assay [1] (first compound 5 µM) it was 0.268; in assay [2] (first compound 0.05 µM) it was 0.957. The relative viability in assay [2] (first compound 0.1581 µM) stood at 0.901; in assay [2] (first compound 0.5 µM), 0.791; in assay [2] (first compound 5 µM), 0.625; in assay [3] (first compound 0.05 µM), 0.846; in assay [3] (first compound 0.1581 µM) it was 0.748; in assay [3] (first compound 0.5 µM), 0.336. Further, the relative viability in assay [3] (first compound 1.581 µM) came to 0.21; in assay [3] (first compound 5 µM), 0.182; in assay [4] (first compound 0.05 µM) it was 0.802; in assay [4] (first compound 0.1581 µM), 0.633; in assay [4] (first compound 0.5 µM) it was 0.27; in assay [4] (first compound 1.581 µM) it was 0.198. Further, the relative viability in assay [4] (first compound 5 µM) came out at 0.25.
SK-LU-1: the relative viability in assay [1] (first compound 0.05 µM) came to 0.223; in assay [1] (first compound 0.1581 µM), 0.238; in assay [1] (first compound 0.5 µM), 0.203; in assay [1] (first compound 1.581 µM), 0.217; in assay [1] (first compound 5 µM) it was 0.193; in assay [2] (first compound 0.05 µM), 0.811. Further, the relative viability was 0.765 in assay [2] (first compound 0.1581 µM); 0.32 in assay [2] (first compound 0.5 µM); 0.219 in assay [2] (first compound 1.581 µM); 0.206 in assay [2] (first compound 5 µM); 0.183 in assay [3] (first compound 0.05 µM); 0.198 in assay [3] (first compound 0.1581 µM). The relative viability in assay [3] (first compound 0.5 µM) stood at 0.138; in assay [3] (first compound 1.581 µM) it was 0.146; in assay [3] (first compound 5 µM) it was 0.158; in assay [4] (first compound 0.05 µM), 0.663; in assay [4] (first compound 0.1581 µM), 0.487; in assay [4] (first compound 0.5 µM), 0.494. Also, the relative viability came out at 0.317 in assay [4] (first compound 1.581 µM) and 0.304 in assay [4] (first compound 5 µM).
On to SK-MES-1, for which the relative viability in assay [1] (first compound 0.05 µM) worked out at 0.725; in assay [1] (first compound 0.1581 µM), 0.83; in assay [1] (first compound 0.5 µM), 0.266; in assay [1] (first compound 1.581 µM), 0.167; in assay [1] (first compound 5 µM) it was 0.182; in assay [2] (first compound 0.05 µM), 0.892. The relative viability is 0.877 in assay [2] (first compound 0.1581 µM); 0.518 in assay [2] (first compound 0.5 µM); 0.667 in assay [2] (first compound 5 µM); 0.338 in assay [3] (first compound 0.05 µM); 0.367 in assay [3] (first compound 0.1581 µM); 0.184 in assay [3] (first compound 0.5 µM). In addition, the relative viability in assay [3] (first compound 1.581 µM) is 0.129; in assay [3] (first compound 5 µM), 0.116; in assay [4] (first compound 0.05 µM) it was 0.371; in assay [4] (first compound 0.1581 µM), 0.393; in assay [4] (first compound 0.5 µM), 0.273; in assay [4] (first compound 1.581 µM), 0.166. The relative viability in assay [4] (first compound 5 µM) is 0.172.
As to SW 1573, the relative viability in assay [1] (first compound 0.05 µM) was 0.547; in assay [1] (first compound 0.1581 µM), 0.337; in assay [1] (first compound 0.5 µM), 0.12; in assay [1] (first compound 1.581 µM), 0.091; in assay [1] (first compound 5 µM), 0.154; in assay [2] (first compound 0.05 µM), 0.927. Also, the relative viability in assay [2] (first compound 0.1581 µM) was determined as 0.94; in assay [2] (first compound 0.5 µM), 0.825; in assay [2] (first compound 1.581 µM), 0.157; in assay [2] (first compound 5 µM), 0.567; in assay [3] (first compound 0.05 µM), 0.574; in assay [3] (first compound 0.1581 µM), 0.416. Besides, the relative viability in assay [3] (first compound 0.5 µM) was determined as 0.11; in assay [3] (first compound 1.581 µM), 0.0632; in assay [3] (first compound 5 µM) it was 0.0788; in assay [4] (first compound 0.05 µM), 0.572; in assay [4] (first compound 0.1581 µM), 0.413; in assay [4] (first compound 0.5 µM) it was 0.223. Moreover, the figures for the relative viability in assay [4] (first compound 1.581 µM) and in assay [4] (first compound 5 µM) were 0.0976 and 0.126, respectively.
For UMC-11, the relative viability was determined as 0.974 in assay [1] (first compound 0.05 µM); 0.722 in assay [1] (first compound 0.1581 µM); 0.128 in assay [1] (first compound 0.5 µM); 0.161 in assay [1] (first compound 1.581 µM); 0.145 in assay [1] (first compound 5 µM); 0.893 in assay [2] (first compound 0.05 µM). Besides, the relative viability in assay [2] (first compound 0.1581 µM) was found to be 0.836; in assay [2] (first compound 0.5 µM), 0.156; in assay [2] (first compound 1.581 µM), 0.18; in assay [2] (first compound 5 µM), 0.145; in assay [3] (first compound 0.05 µM) it was 0.533; in assay [3] (first compound 0.1581 µM) it was 0.399. The relative viability in assay [3] (first compound 0.5 µM) stood at 0.168; in assay [3] (first compound 1.581 µM), 0.18; in assay [3] (first compound 5 µM), 0.133; in assay [4] (first compound 0.05 µM), 0.309; in assay [4] (first compound 0.1581 µM), 0.595; in assay [4] (first compound 0.5 µM), 0.265. Moreover, the relative viability in assay [4] (first compound 1.581 µM) stood at 0.253; in assay [4] (first compound 5 µM), 0.251.
